Consider 22 molecules from patent publication US20070232615A1, “Chemical Compounds” (priority 2004, published 2007).

Each structure is given as a SMILES string.

This experiment deals with HIV. Description: HOS HIV infectivity assay (Table 2, strain not given). Format: cell-based. The note with it: Human immunodeficiency virus 1, read-out: Activity Level. As for the experimental part:
HOS HIV-1 Infectivity Assay
Compounds were profiled against two HIV-1 viruses, the M-tropic (CCR5 utilizing) Ba-L strain and the T-tropic (CXCR4 utilizing) IIIB strain. Both viruses were propagated in human peripheral blood lymphocytes. Compounds were tested for there ability to block infection of the HOS cell line (expressing hCXCR4/hCCR5/hCD4/pHIV-LTR-luciferase) by either HIV-1 Ba-L or HIV-1 IIIB. Compound cytotoxicity was also examined in the absence of virus addition.
HOS HIV-1 Infectivity Assay Format
HOS cells (expressing hCXCR4/hCCR5/hCD4/pHIV-LTR-luciferase) were harvested and diluted in Dulbeccos modified Eagles media supplemented with 2% FCS and non-essential amino acid to a concentration of 60,000 cells/ml. The cells were plated into 96-well plates (100 ul per well) and the plates were placed in a tissue culture incubator (37° C.; 5% CO2/95% air) for a period of 24 h.
Subsequently, 50 ul of the desired drug solution (4 times the final concentration) was added to each well and the plates were returned to the tissue culture incubator (37° C.; 5% CO2/95% air) for 1 h. Following this incubation 50 ul of diluted virus was added to each well (approximately 2 million RLU per well of virus). The plates were returned to the tissue culture incubator (37° C.; 5% CO2/95% air) and were incubated for a further 96 h.
Following this incubation the endpoint for the virally infected cultures was quantified following addition of Steady-Glo Luciferase assay system reagent (Promega, Madison, Wis.). Cell viability or non-infected cultures was measured using a CellTiter-Glo luminescent cell viability assay system (Promega, Madison, Wis.). All luminescent readouts are performed on a Topcount luminescence detector (Packard, Meridien, Conn.).
For the molecule `CN(Cc1cn2c(N3CC[C@@H](N(C)C)C3)cccc2n1)C1CCCc2cccnc21` (stereo partly drawn) [Example 23, N-({5-[(3R)-3-(Dimethylamino)-1-pyrrolidinyl]imidazo[1,2-a]pyridin-2-yl}methyl)-N-methyl-5,6,7,8-tetrahydro-8-quinolinamine], the IC50 is below 100 nM.

Regarding `COc1ccccc1CN(Cc1cn2c(N3CCN(C)CC3)cccc2n1)[C@H]1CCCc2cccnc21` [Example 72, (8S)—N-{[2-(Methyloxy)phenyl]methyl}-N-{[5-(4-methyl-1-piperazinyl)imidazo[1,2-a]pyridin-2-yl]methyl}-5,6,7,8-tetrahydro-8-quinolinamine], the IC50 is below 100 nM.

For the molecule `CN1CCN(c2cccc3nc(CN(Cc4cccc(C(F)(F)F)c4)[C@H]4CCCc5cccnc54)cn23)CC1` [Example 70, (8S)—N-{[5-(4-Methyl-1-piperazinyl)imidazo[1,2-a]pyridin-2-yl]methyl}-N-{[3-(trifluoromethyl)phenyl]methyl}-5,6,7,8-tetrahydro-8-quinolinamine], the IC50 was below 100 nM.

Consider `CN(Cc1cn2c(NC(=O)c3cccnc3)cccc2n1)C1CCCc2cccnc21` (stereo not shown) [Example 44, N-(2-{[Methyl(5,6,7,8-tetrahydro-8-quinolinyl)amino]methyl}imidazo[1,2-a]pyridin-5-yl)-3-pyridinecarboxamide], for which the IC50 lay within 500 to 10000 nM.

For the molecule `CC(C)CN(Cc1cn2c(N3CCN(C)CC3)cccc2n1)[C@H]1CCCc2cccnc21` [Example 53, (8S)—N-{[5-(4-Methyl-1-piperazinyl)imidazo[1,2-a]pyridin-2-yl]methyl}-N-(2-methylpropyl)-5,6,7,8-tetrahydro-8-quinolinamine], the IC50 is below 100 nM.

As for `CN1CCC(N(C)c2cccc3nc(CN(C)[C@H]4CCCc5cccnc54)cn23)C1` (stereo partly drawn) [Example 86, (8S)—N-Methyl-N-({5-[methyl(1-methyl-3-pyrrolidinyl)amino]imidazo[1,2-a]pyridin-2-yl}methyl)-5,6,7,8-tetrahydro-8-quinolinamine], the IC50 was below 100 nM.

As to `CN(Cc1cn2c(N3CCC(N)CC3)cccc2n1)[C@H]1CCCc2cccnc21` [Example 80, (8S)—N-{[5-(4-Amino-1-piperidinyl)imidazo[1,2-a]pyridin-2-yl]methyl}-N-methyl-5,6,7,8-tetrahydro-8-quinolinamine], the IC50 was below 100 nM.

Take `COCCN1CCN(c2cccc3nc(CN(C)C4CCCc5cccnc54)cn23)CC1` (stereo not shown) [Example 33, N-Methyl-N-[(5-{4-[2-(methyloxy)ethyl]-1-piperazinyl}imidazo[1,2-a]pyridin-2-yl)methyl]-5,6,7,8-tetrahydro-8-quinolinamine]: the IC50 is below 100 nM.

On to `CN1CCN(c2cccc3nc(CN(Cc4ccc(Br)cc4)[C@H]4CCCc5cccnc54)cn23)CC1` [Example 65, (8S)—N-[(4-Bromophenyl)methyl]-N-{[5-(4-methyl-1-piperazinyl)imidazo[1,2-a]pyridin-2-yl]methyl}-5,6,7,8-tetrahydro-8-quinolinamine], for which the IC50 was below 100 nM.

With `CC(C)N(Cc1cn2c(N3CCN(C)CC3)cccc2n1)[C@H]1CCCc2cccnc21` [Example 55, (8S)—N-(1-Methylethyl)-N-{[5-(4-methyl-1-piperazinyl)imidazo[1,2-a]pyridin-2-yl]methyl}-5,6,7,8-tetrahydro-8-quinolinamine], the IC50 is below 100 nM.

Regarding `CN1CCN(c2cccc3nc(CN(C)[C@H]4CCCc5cccnc54)cn23)CC1` [Example 50, (8S)—N-Methyl-N-{[5-(4-methyl-1-piperazinyl)imidazo[1,2-a]pyridin-2-yl]methyl}-5,6,7,8-tetrahydro-8-quinolinamine], the IC50 is below 100 nM.

On to `CN(Cc1cn2c(N3CC[C@@H](N)C3)cccc2n1)C1CCCc2cccnc21` (stereo partly drawn) [Example 27, N-({5-[(3R)-3-Amino-1-pyrrolidinyl]imidazo[1,2-a]pyridin-2-yl}methyl)-N-methyl-5,6,7,8-tetrahydro-8-quinolinamine], for which the IC50 is below 100 nM.

Consider `CN1CCN(c2cccc3nc(CN(Cc4ccccc4)[C@H]4CCCc5cccnc54)cn23)CC1` [Example 59, (8S)—N-{[5-(4-Methyl-1-piperazinyl)imidazo[1,2-a]pyridin-2-yl]methyl}-N-(phenylmethyl)-5,6,7,8-tetrahydro-8-quinolinamine], for which the IC50 is below 100 nM.

Consider `CCN(CC)[C@@H]1CCN(c2cccc3nc(CN(C)[C@H]4CCCc5cccnc54)cn23)C1` [Example 93, (8S)—N-({5-[(3R)-3-(Diethylamino)-1-pyrrolidinyl]imidazo[1,2-a]pyridin-2-yl}methyl)-N-methyl-5,6,7,8-tetrahydro-8-quinolinamine], for which the IC50 is below 100 nM.

With `CN1CCC(N(C)c2cccc3nc(CN(C)C4CCCc5cccnc54)cn23)C1` (stereo not shown) [Example 29, N-Methyl-N-({5-[methyl(1-methyl-3-pyrrolidinyl)amino]imidazo[1,2-a]pyridin-2-yl}methyl)-5,6,7,8-tetrahydro-8-quinolinamine], the IC50 was below 100 nM.

As for `CN(C)[C@@H]1CCN(c2cccc3nc(CN(C)[C@H]4CCCc5cccnc54)cn23)C1` [Example 83, (8S)—N-({5-[(3R)-3-(Dimethylamino)-1-pyrrolidinyl]imidazo[1,2-a]pyridin-2-yl}methyl)-N-methyl-5,6,7,8-tetrahydro-8-quinolinamine], the IC50 was below 100 nM.

Consider `CN1CCC(N(C)c2cccc3nc(CN(C)[C@H]4CCCc5cccnc54)cn23)CC1` [Example 87, (8S)—N-Methyl-N-({5-[methyl(1-methyl-4-piperidinyl)amino]imidazo[1,2-a]pyridin-2-yl}methyl)-5,6,7,8-tetrahydro-8-quinolinamine], for which the IC50 is below 100 nM.

Consider `CC(C)N1CCN(c2cccc3nc(CN(C)[C@H]4CCCc5cccnc54)cn23)CC1` [Example 89, (8S)—N-Methyl-N-({5-[4-(1-methylethyl)-1-piperazinyl]imidazo[1,2-a]pyridin-2-yl}methyl)-5,6,7,8-tetrahydro-8-quinolinamine], for which the IC50 is below 100 nM.

Take `CN1CCN(c2cccc3nc(CN(CC4CC4)[C@H]4CCCc5cccnc54)cn23)CC1` [Example 57, (8S)—N-(Cyclopropylmethyl)-N-{[5-(4-methyl-1-piperazinyl)imidazo[1,2-a]pyridin-2-yl]methyl}-5,6,7,8-tetrahydro-8-quinolinamine]: the IC50 is below 100 nM.

As for `CN(Cc1cn2c(N3CCOCC3)cccc2n1)C1CCCc2cccnc21` (stereo not shown) [Example 20, N-Methyl-N-{[5-(4-morpholinyl)imidazo[1,2-a]pyridin-2-yl]methyl}-5,6,7,8-tetrahydro-8-quinolinamine], the IC50 is 500 to 10000 nM.

With `COc1cccc(CN(Cc2cn3c(N4CCN(C)CC4)cccc3n2)[C@H]2CCCc3cccnc32)c1` [Example 73, (8S)—N-{[3-(Methyloxy)phenyl]methyl}-N-{[5-(4-methyl-1-piperazinyl)imidazo[1,2-a]pyridin-2-yl]methyl}-5,6,7,8-tetrahydro-8-quinolinamine], the IC50 is below 100 nM.

In the case of `CN(Cc1cn2c(N3CC[C@H](N(C)C)C3)cccc2n1)C1CCCc2cccnc21` (stereo partly drawn) [Example 24, N-({5-[(3S)-3-(Dimethylamino)-1-pyrrolidinyl]imidazo[1,2-a]pyridin-2-yl}methyl)-N-methyl-5,6,7,8-tetrahydro-8-quinolinamine], the IC50 is below 100 nM.
